Laboratory results as given in ChEMBL document CHEMBL2029289, “Structure-activity relationship study of a CXC chemokine receptor type 4 antagonist, FC131, using a series of alkene dipeptide isosteres” (J Med Chem, 2012).

target: C-X-C chemokine receptor type 4 (Homo sapiens, UniProt P61073); assay: Displacement of [125I]SDF-1alpha from CXCR4 expressed in HEK293 cell membrane after 1 hr; format: cell membranes
Sequence (P61073 whole entry): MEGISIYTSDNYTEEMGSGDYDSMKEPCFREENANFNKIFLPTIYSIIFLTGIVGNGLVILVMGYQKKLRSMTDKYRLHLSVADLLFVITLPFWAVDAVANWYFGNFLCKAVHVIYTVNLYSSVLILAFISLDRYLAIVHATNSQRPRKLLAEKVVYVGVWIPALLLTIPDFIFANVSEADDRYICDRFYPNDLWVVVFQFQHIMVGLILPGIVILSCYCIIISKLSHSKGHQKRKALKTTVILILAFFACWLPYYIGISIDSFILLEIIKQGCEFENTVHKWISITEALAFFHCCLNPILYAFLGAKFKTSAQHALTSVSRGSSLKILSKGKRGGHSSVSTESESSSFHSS

| Compound | IC50 |
| --- | --- |
| CN1C(=O)[C@@H](Cc2ccc(O)cc2)NC(=O)CNC(=O)[C@H](Cc2ccc3ccccc3c2)NC(=O)[C@H](CCCN=C(N)N)NC(=O)[C@H]1CCCN=C(N)N | 63 nM |
| C/C1=C\[C@H](CCCNC(=N)N)C(=O)N[C@@H](CCCNC(=N)N)C(=O)N[C@@H](Cc2ccc3ccccc3c2)C(=O)NCC(=O)N[C@@H]1Cc1ccc(O)cc1 | 500 nM |
| C/C1=C(/C)[C@@H](Cc2ccc(O)cc2)NC(=O)CNC(=O)[C@H](Cc2ccc3ccccc3c2)NC(=O)[C@H](CCCNC(=N)N)NC(=O)[C@H]1CCCNC(=N)N | 2500 nM |
| C/C1=C(/C)[C@@H](CCCNC(=N)N)C(=O)N[C@@H](CCCNC(=N)N)C(=O)N[C@@H](Cc2ccc3ccccc3c2)C(=O)NCC(=O)N[C@@H]1Cc1ccc(O)cc1 | 100 nM |
| CN1C(=O)[C@@H](Cc2ccc(O)cc2)NC(=O)CNC(=O)[C@H](Cc2ccc3ccccc3c2)NC(=O)[C@H](CCCNC(=N)N)NC(=O)[C@@H]1CCCNC(=N)N | 290 nM |

Results, then the molecule that gave them:

| IC50 | Compound |
| --- | --- |
| 330 nM | NC(N)=NCCC[C@H]1/C=C/[C@@H](Cc2ccc(O)cc2)NC(=O)CNC(=O)[C@H](Cc2ccc3ccccc3c2)NC(=O)[C@H](CCCN=C(N)N)NC1=O |
| > 10000 nM | NC(N)=NCCC[C@H]1CC[C@H](Cc2ccc(O)cc2)NC(=O)CNC(=O)[C@H](Cc2ccc3ccccc3c2)NC(=O)[C@H](CCCN=C(N)N)NC1=O |
